US5332820A, “Dibenzobicyclo(2.2.2) octane angiotensin II antagonists” (priority 1991, dated 1994)

Tests used:
[1] = target: AII receptor (rat adrenal cortical microsomes); test: Angiotensin II receptor binding (ligand-receptor binding assay; displacement of 3H-AII or 125I-AII); details: 2 nM 3H-AII or 0.05 nM 125I-AII, 1 hour, room temperature
Experimental: The hormone angiotensin II (AII) produces numerous biological responses, e.g., vasoconstriction, through stimulation of its receptors on cell membranes. For the purpose of identifying compounds such as AII antagonists which are capable of interacting with the AII receptor, a ligand-receptor binding assay was utilized for the initial screen. The assay was carried out according to the method described by Glossmann, et al., J. Biol. Chem., 249, 825 (1974), but with some modifications. The reaction mixture contained rat adrenal cortical microsomes (source of AII receptor) in Tris buffer and 2 nM of ^3 H-AII or 0.05 nM ^125 I-AII with or without potential AII antagonist. This mixture was incubated for 1 hour at room temperature and the reaction was subsequently terminated by rapid filtration and rinsing through glass micro-fibre filter. Receptor-bound ^3 H-AII or ^125 I-AII trapped in filter was quantitated by scintillation counting. The inhibitory concentration (IC50) of potential AII antagonist which gives 50% displacement of the total specifically bound ^3 H-AII or ^125 I-AII is a measure of the affinity of such compound for the AII receptor.

[2] = test system: Renal Hypertensive Rats; test: Antihypertensive effects in renal hypertensive rats, intravenous activity; type: in vivo, rat; details: awake renal artery-ligated rats; i.v.; 10 mg/kg (footnote)
Experimental: This procedure increases blood pressure by increasing renin production with consequent elevation of AII levels. […] Arterial blood pressure is continuously measured directly through a carotid artery cannula and recorded using a pressure transducer and a polygraph. Blood pressure levels after treatment are compared to pretreatment levels to determine the antihypertensive effects of the compounds which were tested.

[3] = test system: effects of AII on the blood pressure of pithed rats; details: cited from earlier work
[4] = test system: arterial pressure in mammals and man; details: cited from earlier work
[5] = test system: renal vasoconstrictor effect of indomethacin and meclofenamate; details: dogs; cited from earlier work
[6] = test system: renal vasoconstrictor effect of indomethacin; details: dogs with non-hypotensive hemorrhage; cited from earlier work

| Compound | IC50 [1] [nM] | Antihypertensive Effects in Renal Hypertensive Rats, Intravenous Activity [2] | also measured |
| --- | --- | --- | --- |
| CCCCc1nc(Cl)c(C=O)n1Cc1ccc2c(c1)C1c3ccccc3C2C(C(=O)O)C1C(=O)O (mixture of isomers) [Example 1, (±)-cis-2-[(2-n-butyl-4-chloro-5-formylimidazol-1-yl)methyl]-9,10-dihydro-9,10-ethanoanthracene-11,12-dicarboxylic acid, a mixture of endo and oxo isomers] | 1100 | + (Significant decrease in blood pressure at 10 mg/kg or less) | – |
| CCCCc1nc(Cl)c(C=O)n1Cc1ccc2c(c1)C1c3ccccc3C2C(C(=O)O)C1C(=O)O (mixture of isomers) [Example 2A, (±)-trans-2-[(2-n-butyl-4-chloro-5-formylimidazol-1-yl)methyl]-9,10-dihydro-9,10-ethanoanthracene-11,12-dicarboxylic acids, both diastereomers] | 220 | + (Significant decrease in blood pressure at 10 mg/kg or less) | – |
| CCCCc1nc(Cl)c(C=O)n1Cc1ccc2c(c1)C1c3ccccc3C2C(C(=O)O)C1C(=O)O (mixture of isomers) [Example 2B, (±)-trans-2-[(2-n-butyl-4-chloro-5-formylimidazol-1-yl)methyl]-9,10-dihydro-9,10-ethanoanthracene-11,12-dicarboxylic acids, both diastereomers] | 320 | + (Significant decrease in blood pressure at 10 mg/kg or less) | – |
| CCCCc1nc(Cl)c(C=O)n1Cc1ccc2c(c1)C1c3ccccc3C2C(c2nnn[nH]2)C1c1nnn[nH]1 (mixture of isomers) [Example 3, (±)-trans-2-[(2-n-butyl-4-chloro-5-formylimidazol-1-yl)methyl]-9,10-dihydro-9,10-ethano-11,12-bis (1H-tetrazol-5-yl)anthracene, both diastereomers] | 92 | + (Significant decrease in blood pressure at 10 mg/kg or less) | – |
| CCCCc1nc(Sc2ccccc2)c(C=O)n1Cc1ccc2c(c1)C1c3ccccc3C2C(c2nnn[nH]2)C1c1nnn[nH]1 (mixture of isomers) [Example 4, (±)-trans-2-[(2-n-butyl-4-phenylthio-5-formylimidazol-l-yl)methyl]-9,10-dihydro-9,10-ethano-11,12-bis (1H-tetrazol-5-yl) anthracene: one diastereomer] | 460 | + (Significant decrease in blood pressure at 10 mg/kg or less) | – |
| CNCC(=O)N[C@@H](CCCN=C(N)N)C(=O)N[C@H](C(=O)N[C@@H](Cc1ccc(O)cc1)C(=O)N[C@H](C(=O)N[C@@H](Cc1cnc[nH]1)C(=O)N1CCC[C@H]1C(=O)N[C@@H](C)C(=O)O)C(C)C)C(C)C [Saralasin] | – | – | block of the effects of AII on blood pressure of pithed rats [3]: blocks the effects of AII on the blood pressure of pithed rats; effect on arterial pressure when the (elevated) pressure is dependent on circulating AII ([4]; mammals and man, AII-dependent pressure): lower arterial pressure in mammals and man; oral effectiveness ([4]; oral doses): oral doses being ineffective; duration of action ([4]; parenteral administration): relatively short-lasting; effect when the pressure is not sustained by AII (agonistic character) ([4]; pressure not sustained by AII): generally elicits pressor effects; inhibition of renal vasoconstrictor effect of indomethacin and meclofenamate [5]: inhibit the renal vasoconstrictor effect of indomethacin and meclofenamate in dogs |
| C[C@H](CS)C(=O)N1CCC[C@H]1C(=O)O [captopril] | – | – | reversal of renal vasoconstrictor effect of indomethacin [6]: reverse the renal vasoconstrictor effect of indomethacin in dogs |
